Data reported in patent US11331364B2, “Use for JNK inhibitor molecules for treatment of various diseases” (Xigen Inflammation Ltd., priority 2014, dated 2022).
Peptide text beside a SMILES is read from it.

How the values were obtained:
[1] = tested on: Imiquimod-induced psoriasis in mice; assay: Imiquimod-induced psoriasis, ear histopathology; assay type: in vivo, mouse; conditions: 10 mg/kg PO daily
Procedure: Female BALB/cAnNCrl mice (Charles River, age 8 to 10 weeks at study start) have been assigned to the following groups (treatment schedule):
In this experiment, two positive controls have been utilized. Firstly, Prednisolone at 10 mg/kg (vehicle: 1% Hydroxyethylcellulose, 0.25% Polysorbate 80, and 0.05% Antifoam in purified water) has been dosed daily and orally (group “Prednisolone”). Secondly, Dexamethasone has been administered at 0.5 mg/kg (vehicle: sterile 0.9% NaCl) on days 1, 4 and 7 via intravenous route.
On day 8, animals have been sacrificed and the tissue (ear) has been fixed in 10% neutral buffered formalin. For histopathology hematoxylin-and-eosin-stained sections (cross cut) have been prepared and microscopic evaluation on the collected tissues from all animals has been performed. Methods and end-points for histopathology were similarly described in the van der Fits (2009) paper in that inflammation, epidermal hyperplasia, epidermal hyperkeratosis (rather than parakeratosis) were observed and recorded for severity grade, whereby the respective methodology from Van der Fits et al. (The Journal of Immunology 2009, 182, P. 5836-5845) is hereby incorporated by reference. Histopathology grading scores were excluded for either skin or ear in animals with secondary inflammatory processes (full thickness epidermal ulcers). Scores were averaged by group and standard deviation and statistical significance were calculated. […] Formalin-fixed, paraffin embedded skin from the dorsal surface of the mouse (BALB/c) was stained with hematoxylin and eosin (H&E) stain and assessed microscopically. An important difference from the above reference and to describe in more detail the observations of the present study: Hyperkeratosis can be defined specifically as orthokeratotic (no retained nuclei) or parakeratotic (retained nuclei). Either can occur normally in various anatomical locations and depending on species; however, both conditions are well defined in particular disease states. The van der Fits paper describes their Imiquimod (IMQ)-induced psoriasis model as causing parakeratotic hyperkeratosis similar to what is seen in the human condition, and that was a defined end-point for this study. However, the Danilenko et al. (Veterinary Pathology 2008 45:563) has shown that many rodent psoriasis models have orthokeratotic hyperkeratosis. […] The more general term ‘hyperkeratosis’ was used for grading end-points and describe in the text what type was seen (primarily orthokeratotic).
Microscopic Histopathology end-points were graded as such: […]

[2] = tested on: acute CYP-induced cystitis in female Sprague-Dawley rats; assay: Cyclophosphamide-induced acute cystitis, intravesical treatment, visceral pain and bladder inflammation; assay type: in vivo, rat; conditions: 50 mg/mL, i.ves.
Procedure: This preclinical model is well-used to test therapeutic approaches for the treatment of interstitial cystitis/painful bladder syndrome (IC/PBS).
Animals were acclimatized to the laboratory conditions for at least 3 days before the start of any experiments. The animals were allocated to the following four experimental groups (n=10 animals per group):
To induce acute cystitis, a single i.p. injection of CYP at a dose of 150 mg/kg in a final volume of 5 mL/kg was performed. Control rats received physiological saline under the same experimental conditions as CYP (final volume of 5 mL/kg, i.p.).
On the day of each experiment, weight of rats was recorded.
Standardized conditions including fixed time-of-day (a.m. to minimize the potential circadian variations in the behaviours responses) and single-experimenter testing of all animals were applied to minimize variability behavior-based pain testing. Visceral pain including allodynia and hyperalgesia was evaluated by applying to the lower abdomen, close to the urinary bladder, a set of 8 calibrated von Frey filaments of increasing forces (1, 2, 4, 6, 8, 10, 26 and 60 g) with an interstimulus interval of 5 seconds. Prior testing, the abdominal area designed for mechanical stimulation of each animal was shaved. Animals were then placed on a raised wire mesh floor under individual transparent Plexiglas box and acclimatized for at least 30 minutes before starting the von Frey test. Filaments were then applied 1-2 seconds through the mesh floor with enough strength to cause the filament to slightly bend. Each filament was tested 3 times. Care was taken to stimulate different areas within the lower abdominal region in the vicinity of the urinary bladder to avoid desensitization.
Nociceptive behaviors were scored for each animal and each filament as follows:
The study design is schematically shown in FIG. 50 A. Birefly, acute cystitis was induced by CYP injection (i.p.) at Do (as described above).
Urinary bladders were rapidly collected and cleaned from lipoid tissue. Urinary bladders were weighed, cut at the bladder neck as well as oedema and haemorrhage scoring was performed (see table below). Finally, wall thickness was measured using a digital caliper by placing the bladder wall between the two outside jaws.

[3] = Stability (half-life) in human serum, UPLC-MS; conditions: human serum (10 and 50% in PBS; FIG. 5: 50%), 0.1 mM peptide
Procedure: The experiment was performed as described by Tugyi et al. (Proc Natl Acad Sci USA, 2005, 413-418). The remaining intact peptide was quantified by UPLC-MS.

[4] = tested on: endotoxins-induced uveitis albino rat model; assay: Endotoxins-induced uveitis (EIU), single intravenous injection, clinical scoring; assay type: in vivo; set-up: key to clinical score (mean±SEM) / clinical score, median: clinical ocular inflammation score per eye, 0 to 4; conditions: sub-conjunctival, 20 Dg/eye; 24 h after LPS
Procedure: The anti-inflammatory potency of the JNK inhibitor of SEQ ID NO: 172 was tested in albino rats following intravenous administration (EIU/LPS model). The aim of this study was to determine the effects of single intravenous injections of SEQ ID NO: 172 (0.015, 0.18, and 1.80 mg/kg) on the inflammatory response in an endotoxins-induced uveitis albino rat model and to compare these affects to those obtained with prior art JNK inhibitor of SEQ ID NO: 197 (2 mg/kg). As a further control served phosphate sodic dexamethasone (“reference”) and vehicle (0.9% NaCl).
Sixty (60) male Lewis rats were randomly divided into six (6) groups often (10) animals each. 0.9% NaCl (vehicle, “control”), SEQ ID NO: 197 at 2 mg/kg and SEQ ID NO: 172 at three concentrations (1.80 mg/kg, 0.18 mg/kg and 0.015 mg/kg) were administered by intravenous injection just before EIU induction (on the day of induction). Accordingly, phosphate sodic dexamethasone (20 Dg/eye, 5 μl; “reference”) was administered by a single sub-conjunctival injection in both eyes just before EIU induction (on the day of induction). EIU was induced by footpad injection of lipopolysaccharide (LPS, 1 mg/kg). 24 hours after LPS injection, inflammatory response was evaluated by clinical scoring.
The intensity of clinical ocular inflammation was scored on a scale from 0 to 4 for each eye: […]

[5] = tested on: established type II collagen arthritis in rats; assay: Chronic established type II collagen arthritis, daily IV 14 days; assay type: in vivo, rat
From the text: Rat collagen arthritis is an experimental model of polyarthritis that has been widely used for preclinical testing of numerous anti-arthritic agents that are either under preclinical or clinical investigation or are currently used as therapeutics in this disease. […] Animals were terminated on arthritis day 14.

[6] = tested on: Endotoxin-Induced Uveitis (EIU) model in rats; assay: Action duration in endotoxin-induced uveitis (EIU), clinical scoring and PMN cells quantification; assay type: in vivo, rat; conditions: 2 mg/kg i.v. immediately before EIU induction
Procedure: […] (18) female Lewis rats (36 eyes) were randomly divided into 6 groups of 3 animals each. EIU was induced by a single footpad injection of 100 µl sterile pyrogen-free saline containing 200 µg of LPS (Lipopolysaccharides from Salmonella typhimurium, Sigma-Aldrich, France)(2 mg/ml).
Animals were treated 48 hours, 1 week, 2 weeks or 4 weeks before EIU induction by intravenous injection of the JNK inhibitor according to SEQ ID NO: 172 (“XG-104”) at a single dose of 1 mg/kg (dose volume 1 ml/kg) in the tail vein. Dexamethasone 2 mg/kg or vehicle (NaCl 0.9%) were injected intravenously immediately before EIU induction.
The effect of the JNK inhibitor according to SEQ ID NO: 172 (“XG-104”) on EIU was evaluated using clinical scoring and PMN cells quantification 24 hours after induction. Ocular examinations were performed by slit lamp at 24 hours i.e. at the clinical peak of the disease in this model. The intensity of clinical ocular inflammation was scored on a scale from 0 to 5 for each eye: • Grade 0: no inflammation, • Grade 1: presence of a minimal iris and conjunctival vasodilatation but without the observation of flare or cells in the anterior chamber (AC), • Grade 2: presence of moderate iris and conjunctival vessel dilation but without evident flare or cells in the AC, • Grade 3: presence of intense iris vessels dilation, flare and less than 10 cells per slit lamp, field in the AC, • Grade 4: presence of more severe clinical signs than grade 3, with more than 10 cells in the AC with or without the formation of a hypopyon, • Grade 5: presence of intense inflammatory reaction, fibrin formation in the AC and total seclusion of the pupil.
For histology, eighteen eyeballs (one per animal) were collected and fixed for 1 h at room temperature in phosphate buffered saline (PBS) containing 4% paraformaldehyde before being rinsed overnight in PBS. The next day, samples were embedded in optimal cutting temperature (OTC) compound (Tissue-Tek®, Sakura Finetek, Zoeterwoude, Netherland) and the optic nerve level using a cryostat (Leica CM 3050S, France) and mounted on super-frost slides for histology. After nuclei staining with DAPI (Sigma-Aldrich, France), sections were mounted in PBS/Glycerol (1/1) and observed by fluorescence photomicroscopy (FXA Microphot, Nikon, USA). Digitized micrographs were obtained usinga digital camera (Spot, BFI Optilas, France). PMN cells identified by the shape of their nuclei stained with DAPI, were quantified on histological sections. The analysis was performed with 2 different sections per eye at the optic nerve head level.
Twenty-four hours after LPS induction, clinical scores for the vehicle-treated rats were 4.6±0.2 (mean±SEM, n=8). Reduction was calculated as (grade in vehicle-treated eye—grade in test item treated eye)/(grade in vehicle-treated eye). A significant reduction (*p<0.05, **p<0.01) in the severity of the ocular inflammation was detected 24 hours after induction and intravenous treatment with the JNK inhibitor according to SEQ ID NO: 172 (“XG-104”) (1 mg/kg) administered 48 hours before EIU induction (mean score: 2.8±0.3), corresponding to a 40% (**) decrease of EIU scores compared with the score observed in vehicle group, 24 hours after induction and intravenous treatment with the JNK inhibitor according to SEQ ID NO: 172 (“XG-104”) (1 mg/kg) administered 1 week before EIU induction (mean score: 3.3±0.3), corresponding to a 27% (*) decrease of EIU scores compared with the score observed in vehicle group, and 24 hours after induction and intravenous treatment with the JNK inhibitor according to SEQ ID NO: 172 (“XG-104”) (1 mg/kg) administered 2 weeks before EIU induction (mean score: 3.0±0.2), corresponding to a 35% (**) decrease of EIU scores compared with the score observed in vehicle group. […]

[7] = vs disease controls, IV QD d1-14, Dex 0.05 mg/kg, SEQ ID NO: 172 up to 5 mg/kg

C[C@]12C=CC(=O)C=C1CC[C@@H]1[C@@H]2[C@@H](O)C[C@@]2(C)[C@H]1CC[C@]2(O)C(=O)CO [Prednisolone, reference compound]
epidermal hyperkeratosis of the ear (average grades) [1]: minimally decreased average grades | inflammation of the ear (average grade) vs vehicle-IMQ [1]: decreased inflammation of the ear | inflammation of the ear (average grade) vs vehicle-IMQ ([1]; listed as prednisolone): significant differences from the vehicle control group

CC(C)Cc1ccc(C(C)C(=O)O)cc1 (stereo not shown) [ibuprofen, reference compound]
urine observation [2]: reddish urine was noticed for some animal | haemorrhage scores vs vehicle ([2]; 24 h after CYP): no significant change | nociceptive scores vs vehicle ([2]; 24 h after CYP): significant decrease | nociceptive threshold vs vehicle ([2]; 24 h after CYP): significantly increased | oedema scores vs vehicle ([2]; 24 h after CYP): significant decrease | urinary bladder wall thickness vs vehicle ([2]; 24 h after CYP): significant decrease

CC(C)C[C@H](NC(=O)[C@H](CC(N)=O)NC(=O)[C@H](CC(C)C)NC(=O)[C@@H](NC(=O)[C@@H](NC(=O)[C@@H]1CCCN1C(=O)[C@H](CCCNC(=N)N)NC(=O)[C@H](CCCCN)NC(=O)[C@@H]1CCCN1C(=O)[C@H](CCCNC(=N)N)NC(=O)[C@@H]1CCCN1C(=O)[C@@H]1CCCN1C(=O)[C@H](CCCNC(=N)N)NC(=O)[C@H](CCCNC(=N)N)NC(=O)[C@H](CCCNC(=N)N)NC(=O)[C@H](CCC(N)=O)NC(=O)[C@H](CCCNC(=N)N)NC(=O)[C@H](CCCNC(=N)N)NC(=O)[C@H](CCCCN)NC(=O)[C@H](CCCCN)NC(=O)[C@H](CCCNC(=N)N)NC(=O)CN)[C@@H](C)O)[C@@H](C)O)C(=O)N[C@@H](Cc1ccccc1)C(=O)N1CCC[C@H]1C(=O)N[C@@H](CCC(N)=O)C(=O)N[C@H](C(=O)N1CCC[C@H]1C(=O)N[C@@H](CCCNC(=N)N)C(=O)N[C@@H](CO)C(=O)N[C@@H](CCC(N)=O)C(=O)N[C@@H](CC(=O)O)C(N)=O)C(C)C [SEQ ID NO: 196, reference compound] (H-GRKKRRQRRRPPRPKRPTTLNLFPQVPRSQD-NH2)
time until totally degraded into amino acids residues [3]: ≤ 6 h

C[C@@H]1C[C@H]2[C@@H]3CCC4=CC(=O)C=C[C@]4(C)[C@@]3(F)[C@@H](O)C[C@]2(C)[C@@]1(O)C(=O)CO [dexamethasone, reference compound]
clinical score (mean±SEM) [4]: 0.8±0.2 | clinical score, median [4]: 0.5 | ankle diameter AUC, reduction toward normal ([5]; 0.05 mg/kg IV QD d1-14): 97% | inhibition of body weight loss vs disease controls ([5]; 0.05 mg/kg IV QD d1-14): 21% | final paw weights, reduction toward normal ([5]; Dex 0.05 mg/kg IV QD d1-14): 114% | spleen weights relative to body weight [5, 7]: significantly (p<0.05 by ANOVA) reduced | thymus weights relative to body weight [5, 7]: significantly (p<0.05 by ANOVA) reduced | clinical score (mean±SEM) [6]: 1.4±0.2 | decrease of clinical scores vs vehicle group [6]: 69%
